This is an account of results in US7122519B2, “Didemnin analogs and fragments and methods of making and using them” (priority 2000, dated 2006).

One data set concerns tumor. Kind of data set: anti-tumor activity (Assay Mean). The class given is cell-based. From the text: (§1) Initial results are shown in Table 2 for inhibition of protein biosynthesis (column 1), cytotoxicity (column 2), and anti-tumor activity (column 3) of tamandarin A, as compared to the related anti-tumor compound didemnin B. The results in Table 2 are given in units of concentration of the selected compound.

The next data set has as its system protein biosynthesis. Briefly: inhibition of protein biosynthesis. Type of data set: biochemical. To be noted: concentration of compound; read-out: Protein Synthesis (inhibition of protein biosynthesis).
Description: as §1

Data set [1] concerns NCI-60 60 tumor cell line panel. Briefly: cytotoxicity, NCI-60 tumor cell line panel mean. The class given is cell-based. Here is the method: as §1
As used herein, “GI50” refers to the dose of a compound which is capable of producing 50% inhibition of cell growth. GI50 is assessed by comparing growth of cells to which a compound has been administered with growth of the same cells to which the compound has not been administered.
As used herein, “LC50” refers to the dose of a compound which is capable of producing 50% lethality in cells. LC50 is assessed by comparing death of cells in a population of cells to which a compound has been administered with the death of cells in a population of the same cells to which the compound has not been administered.
“NCI-60” refers to a 60 tumor cell line panel which from the National Cancer Institute (NCI, Frederick, MD). “NCI-60 Mean” is the average GI50 or LC50 for the panel treated with the selected compound.

The subject of the next data set is pancreatic carcinoma. To be noted: cited from earlier work.

With `CC[C@H](C)[C@H]1NC(=O)[C@@H](NC(=O)[C@@H](CC(C)C)N(C)C(=O)[C@@H]2CCCN2C(=O)C(C)O)[C@@H](C)OC(=O)[C@H](Cc2ccc(OC)cc2)N(C)C(=O)[C@@H]2CCCN2C(=O)[C@H](CC(C)C)NC(=O)[C@@H](C)C(=O)[C@H](C(C)C)OC(=O)C[C@@H]1O` (stereo partly shown) [Didemnin B, reference compound], the “Anti-tumor activity (Assay Mean)” value with tumor stood at 1.58 nM. For the same compound, in the data set on protein biosynthesis, the IC50 turned out to be 4 µM.

For the compound tamandarin A, the “Anti-tumor activity (Assay Mean)” value in the data set on tumor worked out at 1.31 nM. Moreover, in the data set with protein biosynthesis, the IC50 stood at 1.3 µM. In data set [1] (in vitro, assays of Table 2), the “cytotoxicity compared with didemnin B” value is listed as “significantly less cytotoxic”. In data set [1] (mean over 60 tumor cell line panel, 50% lethality in cells), this compound gave an LC50 of 4.8 µM. Besides, the “in vitro activity against pancreatic carcinoma compared with didemnin B” value with pancreatic carcinoma is given as “greater in vitro activity”.

For orientation: LC50 means the concentration that kills 50% of the test population. A low value points to greater toxicity.
